What all share (assay): biochemical
Holding throughout (design): KINOMEscan (DiscoverX) competition binding screen of 97 human kinases, percent of control at 10 uM

The target in one experiment is PIM2 (Homo sapiens, UniProt Q9P1W9). On the procedure:
(§1) The KINOMEscan profiling of the inhibitors were performed as per directions by the manufacturer (DiscoverX) against a panel of human protein kinases.

For the next experiment, the target named is T1, PKAC-alpha (Homo sapiens, UniProt P17612).
T1 construct: gene PRKACA
Here is the method: as §1

The target of another experiment is T2, DCAMKL1 (Homo sapiens, UniProt O15075).
T2 construct: gene DCLK1
T2 sequence (O15075 whole entry): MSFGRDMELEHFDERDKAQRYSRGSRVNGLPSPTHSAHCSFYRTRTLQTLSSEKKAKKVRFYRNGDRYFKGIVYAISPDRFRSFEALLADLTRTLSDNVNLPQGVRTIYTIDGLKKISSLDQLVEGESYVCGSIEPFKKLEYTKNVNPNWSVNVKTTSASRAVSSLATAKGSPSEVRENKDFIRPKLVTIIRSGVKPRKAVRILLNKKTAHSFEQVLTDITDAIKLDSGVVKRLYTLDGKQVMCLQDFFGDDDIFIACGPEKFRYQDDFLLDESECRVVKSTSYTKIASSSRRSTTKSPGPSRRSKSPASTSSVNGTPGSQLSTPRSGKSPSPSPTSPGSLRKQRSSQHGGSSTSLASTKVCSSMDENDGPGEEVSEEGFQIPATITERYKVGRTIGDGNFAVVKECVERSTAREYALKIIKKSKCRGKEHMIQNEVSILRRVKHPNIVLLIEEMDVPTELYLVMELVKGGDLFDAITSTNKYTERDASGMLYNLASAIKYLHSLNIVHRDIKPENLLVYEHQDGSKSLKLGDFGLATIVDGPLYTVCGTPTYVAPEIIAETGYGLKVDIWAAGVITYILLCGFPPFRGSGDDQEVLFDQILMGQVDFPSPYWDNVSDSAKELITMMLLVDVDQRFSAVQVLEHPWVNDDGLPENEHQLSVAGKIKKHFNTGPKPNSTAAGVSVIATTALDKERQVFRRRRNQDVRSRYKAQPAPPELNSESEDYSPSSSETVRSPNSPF
On the procedure: as §1

The target of another experiment is T3, MEK2 (Homo sapiens, UniProt P36507).
T3 construct: gene MAP2K2
Here is the method:
as §1

A further experiment addresses PDPK1 (Homo sapiens, UniProt O15530). Here is the method: as §1
The next experiment has as its target T4, JNK1 (Homo sapiens, UniProt P45983).
T4 construct: gene MAPK8
On the procedure:
as §1

The target of a further experiment is T5, MLK1 (Homo sapiens, UniProt P80192).
T5 construct: gene MAP3K9
Here is the method: as §1

For the next experiment, the target named is T6, PCTK1 (Homo sapiens, UniProt Q00536).
T6 construct: gene CDK16
Here is the method: as §1

In another experiment the target is EGFR (Homo sapiens, UniProt P00533). Here is the method:
as §1

Another experiment deals with KIT(D816V) (Homo sapiens, UniProt P10721, D816V). On the procedure: as §1
Another experiment concerns the target MKNK1 (Homo sapiens, UniProt Q9BUB5). Here is the method: as §1
The target of a further experiment is RIOK2 (Homo sapiens, UniProt Q9BVS4). Here is the method: as §1
The target in the next experiment is MAPKAPK2 (Homo sapiens, UniProt P49137). Here is the method: as §1
MAPKAPK2, sequence (P49137 whole entry): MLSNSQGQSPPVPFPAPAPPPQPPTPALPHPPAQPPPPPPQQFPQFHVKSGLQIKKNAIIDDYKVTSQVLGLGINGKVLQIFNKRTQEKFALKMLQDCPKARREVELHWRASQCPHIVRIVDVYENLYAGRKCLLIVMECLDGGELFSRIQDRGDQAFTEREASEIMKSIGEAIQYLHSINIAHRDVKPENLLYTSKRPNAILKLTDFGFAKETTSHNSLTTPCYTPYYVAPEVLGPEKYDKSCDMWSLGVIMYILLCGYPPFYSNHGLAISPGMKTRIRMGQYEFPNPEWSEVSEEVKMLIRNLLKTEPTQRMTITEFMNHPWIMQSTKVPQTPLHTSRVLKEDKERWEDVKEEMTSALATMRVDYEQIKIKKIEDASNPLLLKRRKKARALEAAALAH
Another experiment has as its target CDK7 (Homo sapiens, UniProt P50613). Here is the method: as §1
The next experiment deals with T7, ABL1-nonphosphorylated (Homo sapiens, UniProt P00519).
T7 construct: nonphosphorylated
On the procedure: as §1

Experiment [1] addresses T8, JAK2(JH1domain-catalytic) (Homo sapiens, UniProt O60674).
T8 construct: JH1domain-catalytic
On the procedure: as §1

Another experiment addresses T9, JNK3 (Homo sapiens, UniProt P53779).
T9 construct: gene MAPK10
On the procedure:
as §1

For the next experiment, the target named is CSF1R (Homo sapiens, UniProt P07333). Here is the method: as §1
In a further experiment the target is PIM1 (Homo sapiens, UniProt P11309). Here is the method:
as §1

The target of the next experiment is CDK2 (Homo sapiens, UniProt P24941). On the procedure:
as §1

For a further experiment, the target named is BTK (Homo sapiens, UniProt Q06187). Here is the method:
as §1

For the next experiment, the target named is CSNK1G2 (Homo sapiens, UniProt P78368). On the procedure: as §1
The next experiment concerns the target GSK3B (Homo sapiens, UniProt P49841). Here is the method:
as §1

Setting [2] is: read-out: R428 %Ctrl @ 10000nM, binding competition.
[3] abbreviates: binding competition, % of control, read-out: RU-301 %Ctrl @ 10000nM.

MKNK1, sequence (Q9BUB5 whole entry): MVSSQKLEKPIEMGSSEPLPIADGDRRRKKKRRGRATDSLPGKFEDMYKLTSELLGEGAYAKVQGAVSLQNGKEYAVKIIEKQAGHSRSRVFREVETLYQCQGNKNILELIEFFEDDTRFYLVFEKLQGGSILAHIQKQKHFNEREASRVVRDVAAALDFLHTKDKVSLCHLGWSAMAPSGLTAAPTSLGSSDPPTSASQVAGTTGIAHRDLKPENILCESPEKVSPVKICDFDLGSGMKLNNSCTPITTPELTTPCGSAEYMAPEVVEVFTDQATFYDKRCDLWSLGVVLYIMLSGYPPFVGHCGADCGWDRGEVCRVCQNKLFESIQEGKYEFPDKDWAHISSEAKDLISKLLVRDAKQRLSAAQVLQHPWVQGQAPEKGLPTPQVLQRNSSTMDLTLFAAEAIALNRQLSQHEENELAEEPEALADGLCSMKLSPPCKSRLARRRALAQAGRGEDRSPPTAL
PDPK1, sequence (O15530 whole entry): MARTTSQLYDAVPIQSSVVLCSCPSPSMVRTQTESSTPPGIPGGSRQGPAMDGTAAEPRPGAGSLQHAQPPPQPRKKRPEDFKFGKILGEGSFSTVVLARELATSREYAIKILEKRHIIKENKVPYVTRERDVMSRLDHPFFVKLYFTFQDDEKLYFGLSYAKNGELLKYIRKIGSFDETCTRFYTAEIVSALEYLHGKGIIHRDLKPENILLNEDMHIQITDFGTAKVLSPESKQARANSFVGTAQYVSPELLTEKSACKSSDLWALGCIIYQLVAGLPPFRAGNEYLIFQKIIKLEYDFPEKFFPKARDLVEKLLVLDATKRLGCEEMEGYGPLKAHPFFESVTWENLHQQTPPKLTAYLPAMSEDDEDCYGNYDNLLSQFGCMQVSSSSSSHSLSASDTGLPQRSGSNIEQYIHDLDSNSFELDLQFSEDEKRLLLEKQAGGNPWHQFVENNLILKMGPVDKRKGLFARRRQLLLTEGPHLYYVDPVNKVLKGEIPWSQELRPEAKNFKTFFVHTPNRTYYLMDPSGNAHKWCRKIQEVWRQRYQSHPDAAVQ
BTK, sequence (Q06187 whole entry): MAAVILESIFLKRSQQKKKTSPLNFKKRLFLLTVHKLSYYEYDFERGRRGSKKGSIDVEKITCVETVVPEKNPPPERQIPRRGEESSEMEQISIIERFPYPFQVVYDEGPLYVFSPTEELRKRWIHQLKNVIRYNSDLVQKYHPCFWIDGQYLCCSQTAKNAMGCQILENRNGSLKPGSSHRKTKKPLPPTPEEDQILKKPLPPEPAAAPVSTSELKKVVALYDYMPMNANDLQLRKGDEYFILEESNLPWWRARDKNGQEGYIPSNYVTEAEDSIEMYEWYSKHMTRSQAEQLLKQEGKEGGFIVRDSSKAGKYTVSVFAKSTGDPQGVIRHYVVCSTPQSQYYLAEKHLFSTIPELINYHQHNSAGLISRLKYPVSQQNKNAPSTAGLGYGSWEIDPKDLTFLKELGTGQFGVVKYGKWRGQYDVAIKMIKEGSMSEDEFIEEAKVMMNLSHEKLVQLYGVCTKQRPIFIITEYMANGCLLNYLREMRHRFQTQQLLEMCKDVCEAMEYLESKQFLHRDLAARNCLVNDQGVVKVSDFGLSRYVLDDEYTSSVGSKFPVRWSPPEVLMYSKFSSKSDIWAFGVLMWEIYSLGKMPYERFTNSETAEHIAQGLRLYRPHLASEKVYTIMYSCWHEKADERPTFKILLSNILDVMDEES
PIM2, sequence (Q9P1W9 whole entry): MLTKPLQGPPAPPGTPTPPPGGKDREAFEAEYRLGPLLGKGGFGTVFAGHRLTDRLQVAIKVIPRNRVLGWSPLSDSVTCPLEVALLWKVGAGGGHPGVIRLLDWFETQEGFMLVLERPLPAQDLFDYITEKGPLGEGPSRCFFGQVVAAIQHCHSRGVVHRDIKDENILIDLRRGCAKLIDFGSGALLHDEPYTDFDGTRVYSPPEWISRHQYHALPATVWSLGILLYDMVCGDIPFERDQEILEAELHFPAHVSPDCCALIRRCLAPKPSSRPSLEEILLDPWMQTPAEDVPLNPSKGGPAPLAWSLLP
EGFR, sequence (P00533 whole entry): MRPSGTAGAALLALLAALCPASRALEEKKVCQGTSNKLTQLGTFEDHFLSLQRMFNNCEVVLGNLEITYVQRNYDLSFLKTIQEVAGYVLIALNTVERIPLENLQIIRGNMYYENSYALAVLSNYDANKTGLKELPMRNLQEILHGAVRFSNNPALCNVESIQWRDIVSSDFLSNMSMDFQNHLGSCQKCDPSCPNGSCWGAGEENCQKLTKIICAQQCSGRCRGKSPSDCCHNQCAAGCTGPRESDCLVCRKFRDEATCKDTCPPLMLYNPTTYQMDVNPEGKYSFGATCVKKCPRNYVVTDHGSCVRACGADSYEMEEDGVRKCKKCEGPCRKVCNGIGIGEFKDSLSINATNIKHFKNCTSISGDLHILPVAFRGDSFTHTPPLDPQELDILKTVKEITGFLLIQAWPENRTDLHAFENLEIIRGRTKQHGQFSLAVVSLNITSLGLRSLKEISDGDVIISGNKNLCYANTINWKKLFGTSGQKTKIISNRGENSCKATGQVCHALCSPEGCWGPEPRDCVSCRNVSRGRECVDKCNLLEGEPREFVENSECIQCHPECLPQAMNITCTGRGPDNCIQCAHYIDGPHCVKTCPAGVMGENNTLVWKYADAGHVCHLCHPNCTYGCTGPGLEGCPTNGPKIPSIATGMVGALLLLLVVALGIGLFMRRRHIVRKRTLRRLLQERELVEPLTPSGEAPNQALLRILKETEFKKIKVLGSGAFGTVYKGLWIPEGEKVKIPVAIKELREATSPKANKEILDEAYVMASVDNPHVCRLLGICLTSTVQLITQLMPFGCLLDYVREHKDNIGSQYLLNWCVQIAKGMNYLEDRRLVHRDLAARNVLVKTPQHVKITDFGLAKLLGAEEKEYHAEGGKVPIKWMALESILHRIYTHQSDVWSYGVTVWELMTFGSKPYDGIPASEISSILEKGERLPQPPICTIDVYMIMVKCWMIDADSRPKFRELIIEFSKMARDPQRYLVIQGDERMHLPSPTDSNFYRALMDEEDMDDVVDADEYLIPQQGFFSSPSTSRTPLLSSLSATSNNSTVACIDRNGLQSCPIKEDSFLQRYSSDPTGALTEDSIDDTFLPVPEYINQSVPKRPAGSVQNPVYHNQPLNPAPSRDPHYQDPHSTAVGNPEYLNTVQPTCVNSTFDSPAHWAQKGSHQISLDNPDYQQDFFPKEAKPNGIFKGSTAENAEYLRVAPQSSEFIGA
T9 sequence (P53779 whole entry): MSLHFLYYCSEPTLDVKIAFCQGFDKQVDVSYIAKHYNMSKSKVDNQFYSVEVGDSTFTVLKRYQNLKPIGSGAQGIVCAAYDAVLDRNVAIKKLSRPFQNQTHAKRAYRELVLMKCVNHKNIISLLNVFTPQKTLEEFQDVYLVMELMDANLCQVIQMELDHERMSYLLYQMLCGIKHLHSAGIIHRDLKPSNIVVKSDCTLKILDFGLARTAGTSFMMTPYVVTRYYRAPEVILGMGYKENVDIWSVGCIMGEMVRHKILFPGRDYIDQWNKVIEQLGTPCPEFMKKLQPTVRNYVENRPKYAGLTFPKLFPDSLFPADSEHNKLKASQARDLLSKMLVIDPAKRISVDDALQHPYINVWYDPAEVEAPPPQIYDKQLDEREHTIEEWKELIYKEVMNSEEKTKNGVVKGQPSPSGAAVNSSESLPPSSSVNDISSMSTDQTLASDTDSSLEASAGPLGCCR

In the case of `Nc1nc(Nc2ccc3c(c2)CC[C@@H](N2CCCC2)CC3)nn1-c1cc2c(nn1)-c1ccccc1CCC2` [R428], the percent of control binding at 10 µM on PIM2 (setting [2]) is 100%; at PKAC-alpha (setting [2]) it was 48%; on DCAMKL1 (setting [2]), 98%; at MEK2 (setting [2]) it was 0.2%; on PDPK1 (setting [2]), 34%; on JNK1 (setting [2]), 14%. Besides, the percent of control binding at 10 µM on MLK1 (setting [2]) came out at 2.2%; on PCTK1 (setting [2]), 90%; at EGFR (setting [2]), 74%; on KIT(D816V) (setting [2]), 0.15%; on MKNK1 (setting [2]) it was 19%; at RIOK2 (setting [2]), 94%. The percent of control binding at 10 µM at MAPKAPK2 (setting [2]) was determined as 87%; at CDK7 (setting [2]) it was 23%; on ABL1-nonphosphorylated (setting [2]) it was 0.25%; in experiment [1] (setting [2]), 0%; on JNK3 (setting [2]), 46%; at CSF1R (setting [2]), 0.35%. Moreover, the percent of control binding at 10 µM at PIM1 (setting [2]) came out at 67%; on CDK2 (setting [2]) it was 71%; on BTK (setting [2]) it was 31%; at CSNK1G2 (setting [2]) it was 4.6%; at GSK3B (setting [2]), 74%.

For `Cc1cc(CSc2ccccc2C(=O)NCCNc2ccc(C(F)(F)F)cc2[N+](=O)[O-])on1` [RU-301], the remaining binding at 10 µM came out at 83% on PIM2 (setting [3]); 90% at PKAC-alpha (setting [3]); 81% on DCAMKL1 (setting [3]); 71% at MEK2 (setting [3]); 99% on PDPK1 (setting [3]); 91% at JNK1 (setting [3]). For the same compound, the remaining binding at 10 µM at MLK1 (setting [3]) worked out at 100%; at PCTK1 (setting [3]) it was 100%; on EGFR (setting [3]), 100%; on KIT(D816V) (setting [3]) it was 100%; on MKNK1 (setting [3]), 78%; at RIOK2 (setting [3]), 100%. For the same compound, the remaining binding at 10 µM at MAPKAPK2 (setting [3]) worked out at 100%; on CDK7 (setting [3]), 85%; at ABL1-nonphosphorylated (setting [3]), 100%; in experiment [1] (setting [3]) it was 87%; at JNK3 (setting [3]), 100%; on CSF1R (setting [3]), 90%. Moreover, the remaining binding at 10 µM was 82% on PIM1 (setting [3]); 100% at CDK2 (setting [3]); 100% at BTK (setting [3]); 100% at CSNK1G2 (setting [3]); 98% at GSK3B (setting [3]).

These data come from article PMC5341070, “Small molecule inhibitors block Gas6-inducible TAM activation and tumorigenicity” (Scientific Reports, 2017).
